Laboratory results from PMC5629628, “The development of activatable lytic peptides for targeting triple negative breast cancer” (Cell Death Discovery, 2017).

Tests used:
[1] = system: MDA-MB-231; test: Cell viability with or without caspase inhibitor Z-VAD-FMK; type: cell-based, human; details: MDA-MB-231, 24 h treatment, with or without Z-VAD-FMK
Protocol: 100 μl of 4×10^4/ml cell suspension (MDA-MB-231, MCF-7, HeLa, SK-OV-3) was placed in each well of the 96-well culture plate and allowed to grow in dulbecco's modified eagle medium or Leibovitz medium (L-15) supplemented with 10% fetal bovine serum overnight. The cells were incubated with serial dilution of compounds at 310 K in 5% fetal bovine serum containing media for 24 h supplied with 5% CO2. At the end of the compounds exposure, 20 μl of 3-(4,5-dimethyl-2-thiazolyl)-2,5-diphenyl-2-H-tetrazolium bromide reagent was added and incubated at 310 K for 4 h. The absorbance of formazan product was measured at 490 nm by a microplate reader (PerkinElmer, Waltham, MA, USA). Cells without peptide were treated as control. *P<0.05, **P<0.01, ***P<0.001 compared with vehicle-treated cells. In Z-VAD-FMK assays, *P<0.05, **P<0.01, ***P<0.001 compared with cells without treatment of Z-VAD-FMK.

[2] = system: caspase-3/7 in MDA-MB-231 cells; test: Caspase-3/7 activation analysis; type: cell-based, human; details: MDA-MB-231, 4 h treatment; Uk14 5 μM, Ur11 10 μM, ABT-737 10 μM
Protocol: Cells (MDA-MB-231) were plated 10 000 per well on 96-well plates in medium containing 10% fetal bovine serum and incubated with serial dilution of peptides and ABT-737 for 4 h. Then caspase-3/7 activation was measured by addition of the caspase-Glo 3/7 chemiluminescence reagent in accordance with the manufacturer’s protocol (Promega, Madison, WI, USA).

CN(C)CC[C@H](CSc1ccccc1)Nc1ccc(S(=O)(=O)NC(=O)c2ccc(N3CCN(Cc4ccccc4-c4ccc(Cl)cc4)CC3)cc2)cc1[N+](=O)[O-] [ABT-737, reference compound]
effect of caspase inhibitor Z-VAD-FMK on cytotoxic effect [1]: did have an inhibitory effect
caspase-3/7 activation [2]: observed
